Laboratory results taken from patent publication US20020072530A1, “Indole and benzimidazole inhibitors of factor Xa” (priority 2000, published 2002).
pIC50: −log10 of the molar value. Read-outs that look alike come from different tables or passages of the source.

Assays:
Type in all cases: biochemical
factor Xa = factor Xa (Homo sapiens, UniProt P00742); experiment: Factor Xa amidolytic assay (chromogenic substrate S-2765)
Description: (§1) The compounds of the present invention are dissolved in buffer to give solutions containing concentrations such that assay concentrations range from about 0 to about 100 μM. In the assays for thrombin, prothrombinase and factor Xa, a synthetic chromogenic substrate is added to a solution containing test compound and the enzyme of interest and the residual catalytic activity of that enzyme is determined spectrophotometrically. The IC50 of a compound is determined from the substrate turnover. The IC50 is the concentration of test compound giving about 50% inhibition of the substrate turnover.
(§2) The factor Xa and thrombin assays were performed at room temperature, in 0.02 M Tris-HCl buffer, pH 7.5, containing 0.15 M NaCl. The rates of hydrolysis of the para-nitroanilide substrate S-2765 (Chromogenix) for factor Xa, and the substrate Chromozym TH (Boehringer Mannheim) for thrombin following preincubation of the enzyme with inhibitor for 5 minutes at room temperature, and were determined using the Softmax 96-well plate reader (Molecular Devices), monitored at 405 nm to measure the time dependent appearance of p-nitroaniline.

thrombin = thrombin (Homo sapiens, UniProt P00734); experiment: Thrombin amidolytic assay (chromogenic substrate Chromozym TH)
Description: as §1, §2

prothrombinase complex = prothrombinase complex (Homo sapiens, UniProt P00742); experiment: Prothrombinase inhibition assay in a plasma free system; conditions: table of Examples 6-18; unit inferred; read-out: IIASE (IC50)
Sequence of prothrombinase complex (P00742 235-488 limits assumed): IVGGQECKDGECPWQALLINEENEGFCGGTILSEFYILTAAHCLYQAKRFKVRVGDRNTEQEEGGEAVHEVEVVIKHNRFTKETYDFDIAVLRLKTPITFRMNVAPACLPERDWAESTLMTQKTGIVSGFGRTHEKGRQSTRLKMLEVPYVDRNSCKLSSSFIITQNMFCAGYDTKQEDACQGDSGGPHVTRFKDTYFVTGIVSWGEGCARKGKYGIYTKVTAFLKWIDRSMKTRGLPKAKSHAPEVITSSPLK
Sequence of prothrombinase complex (P00742 41-179 limits assumed): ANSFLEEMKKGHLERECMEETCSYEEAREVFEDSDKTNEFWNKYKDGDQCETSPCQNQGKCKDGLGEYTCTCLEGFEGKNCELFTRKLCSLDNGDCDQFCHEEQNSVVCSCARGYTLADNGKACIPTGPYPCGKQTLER
Sequence of prothrombinase complex (P12259 29-737 partner limits assumed): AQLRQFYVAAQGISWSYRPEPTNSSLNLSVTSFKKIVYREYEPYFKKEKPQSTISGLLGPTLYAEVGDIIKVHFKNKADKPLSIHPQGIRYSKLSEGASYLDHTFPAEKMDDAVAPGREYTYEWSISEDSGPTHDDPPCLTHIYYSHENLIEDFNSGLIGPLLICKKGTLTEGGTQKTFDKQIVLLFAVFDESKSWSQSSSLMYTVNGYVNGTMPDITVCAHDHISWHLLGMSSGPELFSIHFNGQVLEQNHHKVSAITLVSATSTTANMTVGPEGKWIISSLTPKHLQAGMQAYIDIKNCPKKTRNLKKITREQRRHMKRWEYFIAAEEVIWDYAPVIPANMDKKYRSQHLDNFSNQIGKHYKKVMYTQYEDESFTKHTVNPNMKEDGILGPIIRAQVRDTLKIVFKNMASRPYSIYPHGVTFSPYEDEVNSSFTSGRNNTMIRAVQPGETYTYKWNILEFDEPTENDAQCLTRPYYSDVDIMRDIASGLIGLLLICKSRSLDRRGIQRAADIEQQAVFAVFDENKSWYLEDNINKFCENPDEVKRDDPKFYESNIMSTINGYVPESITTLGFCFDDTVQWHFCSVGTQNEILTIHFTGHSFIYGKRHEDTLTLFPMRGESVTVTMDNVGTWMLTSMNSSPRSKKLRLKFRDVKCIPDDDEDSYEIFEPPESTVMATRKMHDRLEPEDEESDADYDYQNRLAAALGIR
Sequence of prothrombinase complex (P12259 1574-2224 partner limits assumed): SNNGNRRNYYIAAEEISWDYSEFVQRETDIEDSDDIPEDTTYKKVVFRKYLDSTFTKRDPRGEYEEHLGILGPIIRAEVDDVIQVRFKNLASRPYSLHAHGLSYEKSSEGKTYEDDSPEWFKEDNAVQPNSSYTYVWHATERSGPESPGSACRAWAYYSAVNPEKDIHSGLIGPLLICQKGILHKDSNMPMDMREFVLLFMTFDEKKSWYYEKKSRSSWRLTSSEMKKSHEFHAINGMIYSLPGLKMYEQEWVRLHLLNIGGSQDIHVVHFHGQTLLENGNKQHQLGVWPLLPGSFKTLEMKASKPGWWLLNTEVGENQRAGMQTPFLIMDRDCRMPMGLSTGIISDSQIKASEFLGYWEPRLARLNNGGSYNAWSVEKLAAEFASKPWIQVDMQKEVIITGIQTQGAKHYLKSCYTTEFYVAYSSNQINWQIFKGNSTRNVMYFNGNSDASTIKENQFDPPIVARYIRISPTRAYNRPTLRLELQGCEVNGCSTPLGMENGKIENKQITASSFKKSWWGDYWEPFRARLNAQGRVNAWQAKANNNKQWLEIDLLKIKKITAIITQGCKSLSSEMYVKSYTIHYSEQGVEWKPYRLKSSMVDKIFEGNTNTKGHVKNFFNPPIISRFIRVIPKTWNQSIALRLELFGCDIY
Description: as §1
The prothrombinase inhibition assay was performed in a plasma free system with modifications to the method described by Sinha, U. et al., Thromb. Res., 75, 427-436 (1994). Specifically, the activity of the prothrombinase complex was determined by measuring the time course of thrombin generation using the p-nitroanilide substrate Chromozym TH. The assay consists of preincubation (5 minutes) of selected compounds to be tested as inhibitors with the complex formed from factor Xa (0.5 nM), factor Va (2 nM), phosphatidyl serine:phosphatidyl choline (25:75, 20 μM) in 20 mM Tris-HCl buffer, pH 7.5, containing 0.15 M NaCl, 5 mM CaCl2 and 0.1% bovine serum albumin. Aliquots from the complex-inhibitor mixture were added to prothrombin (1 nM) and Chromozym TH (0.1 mM). The rate of substrate cleavage was monitored at 405 nm for two minutes. Eight different concentrations of inhibitor were assayed in duplicate. A standard curve of thrombin generation by an equivalent amount of untreated complex was used for determination of percent inhibition.

[1] = table of Examples 6-18, unit inferred, read-out: XA (IC50)
[2] = table of Examples 6-18, unit inferred, read-out: IIA (IC50)
[3] = Table 5, read-out: Inhibitory Activity (IC50) Factor Xa
[4] = Table 5, read-out: Inhibitory Activity (IC50) Thrombin

Sequence of factor Xa (P00742 235-488 limits assumed): as the sequence (P00742 235-488 limits assumed) above
Sequence of factor Xa (P00742 41-179 limits assumed): as the sequence (P00742 41-179 limits assumed) above

pIC50 (factor Xa; [1])	pIC50 (thrombin; [2])	pIC50 (prothrombinase complex)	pIC50 (factor Xa; [3])	pIC50 (thrombin; [4])	SMILES
6.83	7.79	6.86	–	–	CCn1c(Cn2c(C(C)C)nc3ccc(OC4CCN(C(C)=N)CC4)cc32)cc2ccc(C(=N)N)cc21 [Example 6]
8.92	6.09	8.01	8.92	6.09	CCn1c(Cn2c(C(C)C)nc3cc(OC4CCN(C(C)=N)CC4)ccc32)cc2ccc(C(=N)N)cc21 [Example 7]
7.49	4.54	6.43	–	–	CC(C)c1nc2cc(OC3CCN(C)CC3)ccc2n1Cc1cccc(-c2cccc(C(=N)N)c2)c1 [Example 8]
6.18	5.02	5.04	–	–	CC(=N)N1CCC(Oc2ccc3nc(C(C)C)n(Cc4cccc(-c5cccc(C(=N)N)c5)c4)c3c2)CC1 [Example 9]
8.24	4.58	8.59	8.24	4.58	CC(=N)N1CCC(Oc2ccc3c(c2)nc(C(C)C)n3Cc2cccc(-c3cccc(C(=N)N)c3)c2)CC1 [Example 10]
7.98	–	7.77	–	–	CC(=N)N1CCC(Oc2ccc3nc(C(C)C)n(Cc4ccc5ccc(C(=N)N)cc5c4)c3c2)CC1 [Example 11]
7.74	5.87	6.78	7.74	5.89	CCOC(=O)c1nc2cc(OC3CCN(C(C)=N)CC3)ccc2n1Cc1cc2ccc(C(=N)N)cc2n1CC [Example 18]
